In the assay the test system is normal, 18 h fasting, glucose loaded & streptozotocin induced hyperglycaemic rats. As to the kind of experiment: hypoglycaemic activity (blood sugar) in rats after oral dosing. Format: in vivo. The protocol: 1 kg of A. roseum (whole plant) is shade dried and powdered. The powdered plant material was extracted with ethyl alcohol (5 litres) for 20 hours. The alcohol extract was vacuum dried. The yield was 91 gms. The dried alcoholic extract was macerated successively with hexane and chloroform to give 8.2 gms. and 39.3 gms. of the extracts respectively. A flavonoid glycoside (230 mgs) was isolated from the chloroform extract by repeated column chromatography over silica gel of mesh size 60-120 micron. […] The onset of effect within ½ h and the effect lasted for more than five hours. The fall of blood sugar recorded with above dose was 26 mg/dl (n=24) as compared to fall of 17 & 23 mg/dl recorded with tolbutamide, 50 mg/kg p.o. (n=9) and glipizide, 0.5 mg/kg p.o. (n=8) respectively in 18 h fasting rats.

As for `Cc1cnc(C(=O)NCCc2ccc(S(=O)(=O)NC(=O)NC3CCCCC3)cc2)cn1` [glipizide], the “fall of blood sugar” value (0.5 mg/kg p.o., 18 h fasting rats (n=8)) came to 23 mg/dL. `CCCCNC(=O)NS(=O)(=O)c1ccc(C)cc1` [tolbutamide]: the “fall of blood sugar” value (50 mg/kg p.o., 18 h fasting rats (n=9)) was 17 mg/dL.

The values above are taken from patent publication US6869625B2, “Method of treating diabetes using plant argyrolobium roseum extract, and a process for the isolation of extract from the said plant” (Council of Scientific and Industrial Research, priority 2001, dated 2005).
